We go through four compounds from patent publication EP4813991A1 (iLeadBMS Co., Ltd., priority 2023, dated 2025).

In assay [1] the test system is MDA-MB-231 breast cancer cells. Briefly: Proliferation inhibitory activity assay against MDA-MB-231 breast cancer cells. Type of assay: cell-based. The note with it: Homo sapiens, 72 hours, CellTiter Glo, relative IC50. In a few lines: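 Cells grown in L-15 with 10% FBS at 37 °C, 0% CO2, then exposed next day to compounds at 9 concentrations (DMSO vehicle) for 72 h. Viability read by CellTiter Glo luminescence; relative IC50 from dose-response curve fit.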

The next assay deals with CDK12 (Homo sapiens, UniProt Q9NYV4). Briefly: CDK12 kinase inhibitory activity assay (33P-ATP filter binding). Format: biochemical. In a few lines: (§1)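 Radiometric filter-binding read-out: after 20 min compound–enzyme/substrate pre-incubation across 9 concentrations, reaction started with ^33P-γ-ATP and run 120 min at room temperature. Filter-bound ^33P-substrate measured after 0.75 % phosphoric acid washes; remaining activity versus DMSO gives IC50.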

A further assay deals with CDK13 (Homo sapiens, UniProt Q14004). Briefly: CDK13 kinase inhibitory activity assay (33P-ATP filter binding). Type of assay: biochemical. The procedure, abridged:
as §1

The test system of the next assay is Cyclin K. Briefly: Analysis of Cyclin K degradation ability in HCC70 breast cancer cells (western blot). Type of assay: cell-based. Particulars: 8 hours, compared to the negative control group (DMSO), FIGs. 1 to 3. Here is the method: In order to confirm the Cyclin K degradation ability of the Example compounds, HCC70 breast cancer cells and MKN45 gastric cancer cells were cultured in RPMI-1640 medium supplemented with 10 % FBS, and then the cells were collected to prepare cell suspensions. The HCC70 breast cancer cell suspension was dispensed at a cell number of 2.0 X 10^6 per 6-well and cultured in a 5 % CO2 cell incubator at 37 °C for 24 hours, and the MKN45 gastric cancer cell suspension was dispensed at a cell number of 5.0 X 10^6 per 6-well and cultured in a 5 % CO2 cell incubator at 37 °C for 24 hours. The next day, each Example compound dissolved and diluted in DMSO across 4 to 5 concentration ranges and a negative control group (DMSO-treated group) were added to the 6-wells, and the HCC70 breast cancer cells were treated for 8 hours while the MKN45 gastric cancer cells were treated with the compounds for 8 hours or 24 hours. After completion of the compound treatment, the medium was removed, each cell was washed with PBS, and then 100 µL of RIPA buffer for cell lysis was added to each 6-well to collect cell lysates. The protein concentration of the cell lysates was quantified by the […], and loading buffer was added to adjust the protein concentration to 30 µg, followed by reaction at 85 °C for 10 minutes, centrifugation, and standing at room temperature. After electrophoresis on a 4-12 % Bis-Tris gel, proteins were transferred to a nitrocellulose membrane. Primary antibodies, Cyclin K (1:1000, Bethyl Lab) and Vinculin (1:1000, Sigma), were attached to the membrane, respectively, and then labeled using a secondary antibody (1:10000, LI-COR).
A general note: In western blotting, separated proteins are transferred to a membrane and probed.

Another assay deals with MDA-MB-436 cells. Briefly: Breast cancer cell proliferation inhibitory activity, MDA-MB-436. Format: cell-based. Particulars: Homo sapiens, 72 hours, CellTiter Glo, relative IC50. Here is the method: Experiments were conducted using three types of breast cancer cell lines to measure the cell proliferation inhibitory ability of each Example compound. For HCC70 cells, 100 µL of cell suspension was dispensed into a 96-well plate using RPMI1640 (Invitrogen) medium containing 10 % FBS, followed by incubation in a cell incubator at 37 °C and 5 % CO2. For BT-20 cells, 100 µL of cell suspension was dispensed into a 96-well plate using EMEM (Invitrogen) medium containing 10 % FBS, followed by incubation in a cell incubator at 37 °C and 5 % CO2. For MDA-MB-436 cells, 100 µL of cell suspension was dispensed into a 96-well plate using L-15 (Invitrogen) medium containing 10 % FBS, followed by incubation in a cell incubator at 37 °C and 0 % CO2. The next day, each Example compound dissolved and diluted in DMSO across 9 concentration ranges and a DMSO control group were treated on the cells for 72 hours. After completion of the compound treatment, 100 µL of CellTiter Glo (Promega) reagent was added to each well of the 96-wellplate, followed by shaking for 10 minutes and standing at room temperature for 10 minutes. After inserting the 96-well plate into an Envision plate reader (PerkinElmer), luminescence signals were measured. Relative IC50 values were calculated by fitting a dose-response curve using XL fit (IDBS Ltd) software.
The breast cancer cell proliferation inhibitory activities of the Example compounds measured by the method described above were evaluated according to the following criteria, and the results are presented in Table 15.
(In ATP-based viability assays light output follows the ATP content of the culture.)

Where [2] appears, read: kinase reaction 120 minutes, 33P-gamma-ATP, read-out: CDK13 IC50.
The mark [3] stands for this setting: kinase reaction 120 minutes, 33P-gamma-ATP, read-out: CDK12 IC50.

Structures are written as SMILES. Where two headings read alike, the source gives them in different places. Some results are limits rather than exact numbers.

The term IC50 denotes the concentration needed to halve the response being measured.

Sequence of CDK13 (Q14004 whole entry, species assumed): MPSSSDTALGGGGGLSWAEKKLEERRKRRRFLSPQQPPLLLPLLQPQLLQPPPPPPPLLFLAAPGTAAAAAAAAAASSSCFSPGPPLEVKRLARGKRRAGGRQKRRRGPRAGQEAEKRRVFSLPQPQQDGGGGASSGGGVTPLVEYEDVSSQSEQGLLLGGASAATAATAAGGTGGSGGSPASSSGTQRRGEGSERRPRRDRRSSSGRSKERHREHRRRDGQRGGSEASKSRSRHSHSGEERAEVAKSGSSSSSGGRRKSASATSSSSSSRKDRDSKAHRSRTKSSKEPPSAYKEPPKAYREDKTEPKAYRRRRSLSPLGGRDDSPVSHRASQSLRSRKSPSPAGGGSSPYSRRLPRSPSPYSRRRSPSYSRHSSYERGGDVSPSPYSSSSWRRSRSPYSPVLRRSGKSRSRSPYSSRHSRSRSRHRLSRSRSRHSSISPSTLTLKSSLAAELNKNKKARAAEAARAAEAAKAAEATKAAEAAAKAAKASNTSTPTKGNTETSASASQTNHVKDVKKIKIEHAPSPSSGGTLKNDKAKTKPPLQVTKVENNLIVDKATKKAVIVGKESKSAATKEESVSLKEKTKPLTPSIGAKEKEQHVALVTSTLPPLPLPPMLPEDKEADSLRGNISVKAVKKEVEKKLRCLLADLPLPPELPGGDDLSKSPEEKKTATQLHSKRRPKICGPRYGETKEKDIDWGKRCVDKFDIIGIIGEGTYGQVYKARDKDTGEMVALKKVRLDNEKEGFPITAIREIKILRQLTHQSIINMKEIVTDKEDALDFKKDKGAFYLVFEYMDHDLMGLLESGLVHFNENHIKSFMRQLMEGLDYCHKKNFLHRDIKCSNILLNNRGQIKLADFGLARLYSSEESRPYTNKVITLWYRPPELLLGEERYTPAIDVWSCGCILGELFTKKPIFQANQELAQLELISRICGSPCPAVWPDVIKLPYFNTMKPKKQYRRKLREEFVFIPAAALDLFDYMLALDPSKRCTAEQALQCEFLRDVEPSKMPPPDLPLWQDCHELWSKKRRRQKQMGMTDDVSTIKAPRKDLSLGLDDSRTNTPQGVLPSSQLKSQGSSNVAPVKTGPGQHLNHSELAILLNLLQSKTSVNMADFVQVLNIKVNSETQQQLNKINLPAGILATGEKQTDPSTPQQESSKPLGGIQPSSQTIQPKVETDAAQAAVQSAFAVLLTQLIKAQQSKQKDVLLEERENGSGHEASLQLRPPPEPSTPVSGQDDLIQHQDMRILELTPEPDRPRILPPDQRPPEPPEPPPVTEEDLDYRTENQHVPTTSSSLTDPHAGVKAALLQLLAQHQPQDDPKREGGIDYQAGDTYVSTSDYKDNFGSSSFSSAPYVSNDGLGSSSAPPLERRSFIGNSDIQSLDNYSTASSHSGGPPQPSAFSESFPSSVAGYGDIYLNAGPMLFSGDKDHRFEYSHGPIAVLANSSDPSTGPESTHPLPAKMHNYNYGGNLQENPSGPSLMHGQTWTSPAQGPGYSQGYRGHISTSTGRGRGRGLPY
Sequence of CDK13 (O75909 whole entry partner, species assumed): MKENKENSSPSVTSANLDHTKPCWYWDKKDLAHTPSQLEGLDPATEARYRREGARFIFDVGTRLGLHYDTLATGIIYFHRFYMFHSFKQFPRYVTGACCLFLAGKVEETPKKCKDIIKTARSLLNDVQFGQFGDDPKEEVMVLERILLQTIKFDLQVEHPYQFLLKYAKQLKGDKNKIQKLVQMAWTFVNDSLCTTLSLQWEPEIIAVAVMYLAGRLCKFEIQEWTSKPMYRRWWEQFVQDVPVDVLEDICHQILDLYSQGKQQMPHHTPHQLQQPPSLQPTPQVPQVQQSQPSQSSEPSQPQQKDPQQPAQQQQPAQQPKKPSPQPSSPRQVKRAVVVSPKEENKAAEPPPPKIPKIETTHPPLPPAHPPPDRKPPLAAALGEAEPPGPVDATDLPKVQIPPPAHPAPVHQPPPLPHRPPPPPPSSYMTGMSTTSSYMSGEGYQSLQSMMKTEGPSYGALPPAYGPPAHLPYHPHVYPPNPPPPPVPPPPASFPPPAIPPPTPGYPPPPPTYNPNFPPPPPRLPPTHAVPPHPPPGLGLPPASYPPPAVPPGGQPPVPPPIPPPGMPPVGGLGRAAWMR
Sequence of CDK12 (Q9NYV4 whole entry, species assumed): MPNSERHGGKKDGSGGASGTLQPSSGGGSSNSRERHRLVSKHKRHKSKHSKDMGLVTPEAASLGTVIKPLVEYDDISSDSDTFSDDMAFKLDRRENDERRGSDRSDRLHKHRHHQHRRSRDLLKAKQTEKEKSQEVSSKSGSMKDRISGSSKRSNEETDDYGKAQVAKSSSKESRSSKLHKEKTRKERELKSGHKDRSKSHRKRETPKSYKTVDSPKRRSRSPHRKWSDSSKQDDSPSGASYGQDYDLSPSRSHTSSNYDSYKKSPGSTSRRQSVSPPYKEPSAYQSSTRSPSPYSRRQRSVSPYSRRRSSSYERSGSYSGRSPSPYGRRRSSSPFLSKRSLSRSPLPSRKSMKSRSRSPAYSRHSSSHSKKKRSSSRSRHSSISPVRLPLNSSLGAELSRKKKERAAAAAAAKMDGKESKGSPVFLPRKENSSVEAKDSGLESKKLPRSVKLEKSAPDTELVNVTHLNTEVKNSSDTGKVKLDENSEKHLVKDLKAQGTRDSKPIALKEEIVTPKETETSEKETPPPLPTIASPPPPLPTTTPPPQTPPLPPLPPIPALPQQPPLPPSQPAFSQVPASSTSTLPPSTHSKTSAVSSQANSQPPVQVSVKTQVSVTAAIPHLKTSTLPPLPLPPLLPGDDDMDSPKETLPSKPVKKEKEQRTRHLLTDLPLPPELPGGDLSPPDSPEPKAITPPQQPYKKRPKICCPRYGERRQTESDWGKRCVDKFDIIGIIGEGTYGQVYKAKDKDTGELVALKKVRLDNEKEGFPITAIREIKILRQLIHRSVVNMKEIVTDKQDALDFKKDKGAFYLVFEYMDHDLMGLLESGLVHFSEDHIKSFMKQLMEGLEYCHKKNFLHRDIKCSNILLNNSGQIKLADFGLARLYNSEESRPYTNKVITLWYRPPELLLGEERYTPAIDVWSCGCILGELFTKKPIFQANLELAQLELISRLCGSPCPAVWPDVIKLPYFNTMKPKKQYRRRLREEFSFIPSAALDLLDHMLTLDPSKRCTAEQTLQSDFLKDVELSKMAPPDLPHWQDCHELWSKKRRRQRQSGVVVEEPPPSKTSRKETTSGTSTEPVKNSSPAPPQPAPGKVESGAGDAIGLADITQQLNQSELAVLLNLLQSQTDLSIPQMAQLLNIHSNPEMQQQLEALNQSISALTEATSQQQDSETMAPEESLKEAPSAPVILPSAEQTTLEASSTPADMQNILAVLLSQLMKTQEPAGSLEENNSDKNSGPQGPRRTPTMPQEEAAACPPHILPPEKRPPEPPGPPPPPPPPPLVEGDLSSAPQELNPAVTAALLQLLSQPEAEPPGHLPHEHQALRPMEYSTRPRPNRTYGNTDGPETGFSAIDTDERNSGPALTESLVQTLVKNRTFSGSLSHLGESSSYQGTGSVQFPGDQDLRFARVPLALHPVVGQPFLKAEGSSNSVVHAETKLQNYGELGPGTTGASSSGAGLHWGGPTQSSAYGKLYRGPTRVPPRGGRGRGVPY
Sequence of CDK12 (O75909 whole entry partner, species assumed): as the sequence (O75909 whole entry partner, species assumed) above

Turning to `Nc1ncc(-c2cc(NCc3nc4cc(Cl)c(Cl)cc4[nH]3)c3ncc(C(F)(F)F)n3n2)cn1` [Example 40], the values for the IC50 (in assay [1]; at CDK12; on CDK13 (setting [2])) were no more than 50 nM, less than 100 nM and less than 100 nM, respectively. Further, in the assay on Cyclin K, the “Cyclin K degradation ability” value is listed as “strongly degrade Cyclin K”.
On to `N#CC1CN(c2cc(NCc3nc4cc(Cl)c(Cl)cc4[nH]3)c3ncc(C(F)(F)F)n3n2)C1` [Example 30, 1-(8-(((5,6-dichloro-1H-benzol[d]imidazol-2-yl)methyl)amino)-3-(trifluoromethyl)imidazo[1,2-b]pyridazin-6-yl)azetidine-3-carbonitrile], for which the IC50 was no more than 50 nM in assay [1], no more than 50 nM in the assay on MDA-MB-436 cells, 100 to 500 nM on CDK12 and less than 100 nM at CDK13 (setting [2]). Moreover, in the assay on Cyclin K, the “Cyclin K degradation ability” value was “strongly degrade Cyclin K”.
`CN1CCN(c2cc(NCc3nc4ccc(F)c(F)c4[nH]3)c3ncc(C(F)(F)F)n3n2)CC1` [Example 8, N-((6,7-difluoro-1H-benzo[d]imidazol-2-yl)methyl)-6-(4-methylpiperazin-1-yl)-3-(trifluoromethyl)imidazo[1,2-b]pyridazin-8-amine]: the IC50 is no more than 50 nM in assay [1], no more than 50 nM in the assay with MDA-MB-436 cells, less than 100 nM at CDK12 (setting [3]) and less than 100 nM at CDK13. Moreover, in the assay with Cyclin K, the “Cyclin K degradation ability” value was “strongly degrade Cyclin K”.
As to `CN1CCN(c2cc(NCc3nc4cc(Cl)c(Cl)cc4[nH]3)c3ncc(C(F)(F)F)n3n2)CC1` [Example 29, N-((5,6-dichloro-1H-benzo[d]imidazol-2-yl)methyl)-6-(4-methylpiperazin-1-yl)-3-(trifluoromethyl)imidazo[1,2-b]pyridazin-8-amine], the IC50 is no more than 50 nM in assay [1], no more than 50 nM in the assay on MDA-MB-436 cells, less than 100 nM at CDK12 (setting [3]) and less than 100 nM on CDK13 (setting [2]).
